Measured values from US5629298A, “Adenosine as a positive inotrop in the compromised heart” (University of Massachusetts Medical Center, priority 1995, dated 1997).
Read-outs that look alike come from different tables or passages of the source.

What was measured:
[1] = tested on: cultured ventricular myocytes; assay: cAMP content of cultured ventricular myocytes (125I-cAMP RIA); format: cell-based, rat; settings: 1 μM DMPX (FIG. 12)
Description: When myocytes were to be used for biochemical studies, each of the culture dishes was preincubated for 2 hours with 1 ml of MEM containing 33 μg of laminin in a 37° C. incubator gassed with 5% CO2 in room air. The laminin solution was removed prior to myocyte seeding. After seeding, the dishes were incubated for an additional 2 hours. The settling and short term culture procedures were performed to purify the myocytes so that >95% of the myocytes adhering to the dishes were rod shaped.
Cyclic AMP levels were determined in cultures of ventricular myocytes according to the following method. After the 2-hour incubation period, the MEM was aspirated and replaced with 2 ml of fresh MEM. Adenosine agonists, ISO, or adenosine antagonists were added to the medium bathing the cells at the concentrations and times indicated. The experiment was terminated by removing the medium from the dish and adding 200 μl of 1N HCl over the cultured myocyte surface. The dishes were then frozen in liquid N2 and stored at -70° C. or held on ice momentarily until extraction was initiated.
For assay, the contents of the dishes were transferred (using 1 ml of distilled/deionized H2 O) into microcentrifuge tubes. The extracts were heated for 1 hour at 57° C. and sonicated for 10 minutes. The extracts were then centrifugated at 14,000 x g for 15 minutes. The supernatant was removed, evaporated, reconstituted in 500 μl of 50 mM sodium acetate buffer and assayed for cAMP using an ^125 I-cAMP RIA kit (Amersham). The pellet was solubilized with 0.1N NaOH and protein determined. The cAMP values are reported in pmol cAMP/mg protein of the extract pellet (total cell protein). This cAMP assay procedure routinely provided recovery values in excess of 90%.

[2] = tested on: rat ventricular myocytes; assay: Contractile function of individual ventricular myocytes (line scan camera edge detection, paced at 0.5 Hz); format: cell-based; settings: for activation at 10 µM: Rattus norvegicus, Ventricular myocyte
Description: Primary cultures of adult rat ventricular myocytes were prepared essentially according to previously described methods (Romano et al., Am. J. Physiol. 257:H1088 (1989)). Two male Sprague-Dawley rats (Charles River, Wilmington, Mass. or Harlan, Indianapolis, Ind.) were decapitated, and the hearts were rapidly excised and constant pressure (70 cm H2) and nonrecirculated) perfused for 10 minutes through the aortas with filtered (0.45 μm membrane filter) perfusing solution (NaCl, 118 mM; glucose, 10 mM; NaHCO3 25 mM; KCl, 4.69 mM; MgSO4 1.18 mM; and KH2 PO4, 1.18 mM; (pH 7.4)), to which […] was added, at 37° C. After equilibration, the hearts were constant pressure perfused with fresh physiological saline ("PS") containing no added Ca^2+ until spontaneous contractions ceased (i.e., ~30 seconds). The hearts were then perfused for 4-10 minutes in a nonrecirculating manner with PS containing 0.73 mg/ml collagenase, 0.16 mg/ml hyaluronidase, 1 mg/ml recrystallized bovine serum albumin ("BSA") and 48.4 μM Ca^2+ at a rate of 3-4 ml/min/heart. Ventricles, free of atria, were removed from the perfusion system, cut into 8 pieces and placed in a 50 ml Erlenmeyer flask with 5 ml of PS containing 0.73 mg/ml collagenase, 0.16 mg/ml hyaluronidase, 2.5 mg/ml BSA, and 50 μM Ca^2+ (incubation solution). The flask was gently shaken (40 cycles/min) in a reciprocating water bath with continuous gassing (95% O2, 5% CO2) for 7 minutes at 37° C. The incubation solution was aspirated and this shaking procedure was repeated with fresh incubation solution 3-5 times depending on the likelihood that the tissue was ready to dissociate. After the final incubation period, the solution was aspirated and replaced with 10 ml of fresh incubation solution. The flask was then shaken rapidly (120 cycles/min) for 10 minutes with gassing to dissociate the myocytes. The flask contents were filtered through a 250 μm nylon mesh into a 50 ml polypropylene centrifuge tube, to which 40 ml of PS containing 5.95 mg/ml BSA and 99.7 μm Ca^2+ (wash solution) was gradually added.
The myocytes were allowed to settle for 15 minutes, and the upper two thirds of the wash solution was aspirated. Upon the addition of 30-35 ml of wash solution, this settling step was repeated. The wash solution was aspirated and the myocyte pellet was resuspended in 10 ml of minimum essential medium ("MEM"). The myocyte suspension was allowed to settle for 5 minutes and then brought to a final volume of 22 ml with MEM. Two milliliters of the myocyte suspension was seeded onto each of 60 mm culture dishes containing 2 ml of MEM.
The contractile function of individual myocytes was assessed by dispersing 50-100 cells in a 506 μl myocyte chamber (11×23×2 mm deep). The chamber (FIG. 1) was continuously suffused (850 μl/min) with fresh suffusion solution ("SS") in mM: 136.4 NaCl, 4.7 KCl, 1.0 CaCl2, 10 hydroxyethylpiperzine-ethanesulfonicacid (HEPES), 1.0 NaHCO3, 1.2 MgSO4, 1.2 KH2 PO4, 10 glucose, 0.6 ascorbate, 1.0 pyruvate) at 20° C. The chamber was mounted on an inverted microscope stage and contained platinum wire electrodes for initiating myocyte contraction at 0.5 Hz (voltage 10% above threshold for 5 msec duration).
The image of the myocyte was projected via an inverted microscope at 300× onto a line scan camera (Fairchild, Model 1600R) containing a linear array (1×3456) of photodiodes. When aligned with the longitudinal axis of the cell the camera detected the movement of the 2 ends of the myocyte upon contraction (shortening and relengthening). […] When the myocyte was transilluminated, both ends of the cell were easily discriminated. Myocyte length and length change with respect to time for a single contraction was measured by determining the pixels in which the appropriate transitions between light and dark occurred. The line scan camera was calibrated with a stage micrometer scaled in 10 μm divisions. The signals from the camera were directed to a Hewlett Packard computer (Model Vectra RS/20C). […]

[3] = tested on: ventricular myocyte membrane adenylyl cyclase; assay: Adenylyl cyclase activity of ventricular myocyte membranes; format: biochemical, rat
Description: After a 3-4 hour incubation period, myocytes were harvested by placing the culture dishes on ice; aspirating and discarding the culture medium; scraping the attached cells into 1 ml of ice cold buffer (pH 7.4) containing 10 mM HEPES and 1 mM dithiothreitol (DTT); and transferring the mixture to a 40 ml centrifuge tube. The culture dishes were rinsed twice with buffer, and the rinses were added to the centrifuge tube. The myocytes were centrifuged at 45,000 x g for 45 minutes and the supernatant was discarded. The pellet was resuspended in 40 mM HEPES (pH 7.4) to yield 3.5-4 mg protein/ml and homogenized with a small clearance Dounce tissue grinder (8 strokes). The membranes were centrifugated as described above, resuspended (3-4 mg protein/ml) in 40 mM HEPES (pH 7.4), and assayed for adenylyl cyclase activity immediately or stored at -80° C. and assayed within 10 days.
The assay system used to measure adenylyl cyclase activity minimizes the formation of endogenous adenosine. The assay used was essentially as described by Romano et al. (supra). Myocyte membranes (15-25 μg protein) were incubated in 50 μl of a buffer containing 40 mM HEPES (pH 7.4), 5 mM MgCl2, 1 mM DTT, 5.5 mM KCl, 0.1 mM 2'-deoxy-cAMP (dcAMP), 0.1 mM 2'-deoxy ATP (dATP), 20 mM phosphoenolpyruvate, 2 units pyruvate kinase, 0.25 units adenosine deaminase, 1 mM ascorbic acid, 100 mM NaCl, 0.1 mM ethyleneglycol-bis (β-aminoethylether) N,N,N',N',-tetroaceticacid (EGTA), 10 μM guanosine 5'-triphosphate (GTP), and ~2×10^6 counts/minutes of [α-^32 P]dATP for 20 minutes at 30° C. The reaction was stopped by adding 40 μl of a solution containing 2% sodium dodecyl sulfate (SDS), 45 mM ATP, 1.3 mM cAMP, and [^3 H]dcAMP (~4000 count/min) and by boiling for 2 minutes.

[4] = Table 6, 10^-5 M SHA-082, 10^-5 M NECA, 10^-4 M adenosine, 2 × 10^-7 M DPCPX, 10^-5 M CGS-15943, mean ± SE, N = 6

## C#CCn1c(=O)c2c(ncn2C)n(C)c1=O [DMPX, 3,7-dimethyl-1-propargylxanthine]
[1]
  effect on the increase in cAMP caused by 10 μM CGS-21680: prevented

## CCNC(=O)[C@H]1O[C@@H](n2cnc3c(N)ncnc32)[C@H](O)[C@@H]1O [NECA, N-ethylcarboxamidoadenosine]
[2]; read-out: increase in DS
  activation at 10 µM: 21%
[2]; read-out: increase in LC
  activation at 10 µM: 24%
[2]; read-out: increase in TPS
  activation at 10 µM: 20%
[2]; read-out: increase in TR
  activation at 10 µM: 28%
[2]; [4]
  +dL/dtmax, maximal rate of shortening: 203 ± 9 μm/msec
  -dL/dtmax, maximal rate of relaxation: 149 ± 12 μm/msec
  DS, duration of shortening: 350 ± 15 ms
  LC, maximum length change (shortening) with contraction: 21 ± 2 μm
  TPS, time-to-peak shortening: 140 ± 5 ms
  TR, time to 75% relaxation: 340 ± 12 ms
[2]; agonist at 10 μM
  contractile responses in the presence of 10 μM CGS-15943: not observed
[3]; NECA 0 to 1 mM (FIG. 10)
  increase in adenylyl cyclase activity: approximately two-fold
[3]; without DPCPX, read-out: EC50 for activation of cyclase
  EC50: 17 ± 5.7 µM
